Measured values: patent US20180015065A1, “METHODS OF TREATING UREA CYCLE DISORDERS” (Horizon Therapeutics, LLC, priority 2013, published 2018)
Where “and” joins values, the source holds several entries; their conditions need not be identical. Equal values may be shown once. Read-outs that look alike come from different tables or passages of the source.

What was measured:
[1] = Spot urinary PAGN level by dose category, HPN-100-012 safety extension; type: in vivo, human; details: pediatric subjects under 6 years, spot urine at 0 hours after overnight fast
Protocol: Pediatric subjects under 6 years of age from the HPN-100-012 safety extension study were divided into three dosing groups: less than 6 mL/m^2, 6-10 mL/m^2, and greater than 10 mL/m^2. Spot urine samples were collected from subjects at 0 hours (i.e., after an overnight fast), and urinary PAGN levels were measured.

[2] = Spot urinary PAGN level by age group, all studies; type: in vivo, human; details: spot urine after overnight fast
Protocol: Subjects from all studies who had spot urine samples were divided into three age groups: less than 2 years of age; 2 to less than 6 years of age; and 6 years of age and older. Spot urine samples were collected from subjects after an overnight fast, and urinary PAGN levels were measured.

[3] = Spot urinary PAGN level by BSA group, all UCD studies and healthy volunteer study HPN-100-010; type: in vivo, human; details: spot urine at 24 hours after overnight fast
Protocol: (§1) Subjects from all UCD studies and the healthy volunteer study (HPN-100-010) were divided into two groups based on their BSA: less than or equal to 1.3 m^2 (≦1.3 m^2) and greater than 1.3 m^2 (>1.3 m^2). Spot urine samples were collected from subjects at 24 hours (i.e., after an overnight fast), and urinary PAGN levels were measured.

[4] = Spot urinary PAGN level by BSA group, subjects 2 years of age and older; type: in vivo, human
Protocol: as §1, with “Subjects in Example 4” for “Subjects”, “(HPN-100-010) who were 2 years of age and older” for “(HPN-100-010)”

ammonia = details: cited from earlier work
[5] = phase 1; dosages equivalent to the highest approved NaPBA dosage of 20 g/day; cited from earlier work
[6] = BSA > 1.3 m^2, spot urine at 24 hours after overnight fast
[7] = BSA ≦ 1.3 m^2, spot urine at 24 hours after overnight fast

**Q.** For `O=C(CCCc1ccccc1)OCC(COC(=O)CCCc1ccccc1)OC(=O)CCCc1ccccc1` [HPN-100, glyceryl tri-[4-phenylbutyrate]], which “Urinary PAGN, 10th percentile” value ([1]; dose 6-10 mL/m^2) is on record?
**A.** 1288 µg/mL

**Q.** And the “Urinary PAGN, 25th percentile” value ([1]; dose 6-10 mL/m^2)?
**A.** 3053 µg/mL

**Q.** What about the “Urinary PAGN, 75th percentile” value ([1]; dose 6-10 mL/m^2) of the same molecule?
**A.** 20796 µg/mL

**Q.** What about the “Urinary PAGN, 90th percentile” value ([1]; dose 6-10 mL/m^2) of the same molecule?
**A.** 24429 µg/mL

**Q.** And the “Urinary PAGN, mean” value ([1]; dose 6-10 mL/m^2)?
**A.** 12313 µg/mL

**Q.** What about the “Urinary PAGN, median” value ([1]; dose 6-10 mL/m^2) of the same molecule?
**A.** 12144 µg/mL

**Q.** And the “Urinary PAGN, 10th percentile” value ([1]; dose <6 mL/m^2)?
**A.** 643 µg/mL

**Q.** What about the “Urinary PAGN, 25th percentile” value ([1]; dose <6 mL/m^2) of the same molecule?
**A.** 1256 µg/mL

**Q.** What about the “Urinary PAGN, 75th percentile” value ([1]; dose <6 mL/m^2) of the same molecule?
**A.** 14290 µg/mL

**Q.** And the “Urinary PAGN, 90th percentile” value ([1]; dose <6 mL/m^2)?
**A.** 20797 µg/mL

**Q.** And the “Urinary PAGN, mean” value ([1]; dose <6 mL/m^2)?
**A.** 8353 µg/mL

**Q.** And the “Urinary PAGN, median” value ([1]; dose <6 mL/m^2)?
**A.** 3298 µg/mL

**Q.** And the “Urinary PAGN, 10th percentile” value ([1]; dose >10 mL/m^2)?
**A.** 264 µg/mL

**Q.** And the “Urinary PAGN, 25th percentile” value ([1]; dose >10 mL/m^2)?
**A.** 6990 µg/mL

**Q.** And the “Urinary PAGN, 75th percentile” value ([1]; dose >10 mL/m^2)?
**A.** 26247 µg/mL

**Q.** What about the “Urinary PAGN, 90th percentile” value ([1]; dose >10 mL/m^2) of the same molecule?
**A.** 28084 µg/mL

**Q.** What about the “Urinary PAGN, mean” value ([1]; dose >10 mL/m^2) of the same molecule?
**A.** 16842 µg/mL

**Q.** And the “Urinary PAGN, median” value ([1]; dose >10 mL/m^2)?
**A.** 17089 µg/mL

**Q.** What about the “U-PAGN, 10th percentile” value ([2]; age group 2-<6 years) of the same molecule?
**A.** 1717 µg/mL

**Q.** What about the “U-PAGN, 25th percentile” value ([2]; age group 2-<6 years) of the same molecule?
**A.** 5146 µg/mL

**Q.** What about the “U-PAGN, 75th percentile” value ([2]; age group 2-<6 years) of the same molecule?
**A.** 20603 µg/mL

**Q.** What about the “U-PAGN, 90th percentile” value ([2]; age group 2-<6 years) of the same molecule?
**A.** 27728 µg/mL

**Q.** What about the “U-PAGN, maximum” value ([2]; age group 2-<6 years) of the same molecule?
**A.** 43372 µg/mL

**Q.** And the “U-PAGN, mean” value ([2]; age group 2-<6 years)?
**A.** 13420 µg/mL

**Q.** And the “U-PAGN, median” value ([2]; age group 2-<6 years)?
**A.** 12114 µg/mL

**Q.** And the “U-PAGN, minimum” value ([2]; age group 2-<6 years)?
**A.** 119 µg/mL

**Q.** And the “U-PAGN, 10th percentile” value ([2]; age group <2 years)?
**A.** 3265 µg/mL

**Q.** And the “U-PAGN, 25th percentile” value ([2]; age group <2 years)?
**A.** 8996 µg/mL

**Q.** What about the “U-PAGN, 75th percentile” value ([2]; age group <2 years) of the same molecule?
**A.** 25019 µg/mL

**Q.** And the “U-PAGN, 90th percentile” value ([2]; age group <2 years)?
**A.** 28028 µg/mL

**Q.** What about the “U-PAGN, maximum” value ([2]; age group <2 years) of the same molecule?
**A.** 44298 µg/mL

**Q.** What about the “U-PAGN, mean” value ([2]; age group <2 years) of the same molecule?
**A.** 17330 µg/mL

**Q.** What about the “U-PAGN, median” value ([2]; age group <2 years) of the same molecule?
**A.** 17229 µg/mL

**Q.** What about the “U-PAGN, minimum” value ([2]; age group <2 years) of the same molecule?
**A.** 348 µg/mL

**Q.** And the “U-PAGN, 10th percentile” value ([2]; age group ≧6 years)?
**A.** 1564 µg/mL

**Q.** What about the “U-PAGN, 25th percentile” value ([2]; age group ≧6 years) of the same molecule?
**A.** 4032 µg/mL

**Q.** And the “U-PAGN, 75th percentile” value ([2]; age group ≧6 years)?
**A.** 13846 µg/mL

**Q.** What about the “U-PAGN, 90th percentile” value ([2]; age group ≧6 years) of the same molecule?
**A.** 21633 µg/mL

**Q.** What about the “U-PAGN, maximum” value ([2]; age group ≧6 years) of the same molecule?
**A.** 60960 µg/mL

**Q.** What about the “U-PAGN, mean” value ([2]; age group ≧6 years) of the same molecule?
**A.** 10103 µg/mL

**Q.** What about the “U-PAGN, median” value ([2]; age group ≧6 years) of the same molecule?
**A.** 7185 µg/mL

**Q.** What about the “U-PAGN, minimum” value ([2]; age group ≧6 years) of the same molecule?
**A.** 642 µg/mL

**Q.** What about the “U-PAGN, 5th percentile” value ([3]; BSA > 1.3 m^2) of the same molecule?
**A.** 3379.24 µg/mL

**Q.** And the “U-PAGN, 10th percentile” value ([3]; BSA > 1.3 m^2)?
**A.** 4078.79 µg/mL

**Q.** And the “U-PAGN, 25th percentile” value ([3]; BSA > 1.3 m^2)?
**A.** 5259 µg/mL and 5259.01 µg/mL

**Q.** And the “U-PAGN, 50th percentile” value ([3]; BSA > 1.3 m^2)?
**A.** 7748.84 µg/mL

**Q.** And the “U-PAGN, 75th percentile” value ([3]; BSA > 1.3 m^2)?
**A.** 11916.08 µg/mL

**Q.** What about the “U-PAGN, 90th percentile” value ([3]; BSA > 1.3 m^2) of the same molecule?
**A.** 15993.51 µg/mL

**Q.** What about the “U-PAGN, 95th percentile” value ([3]; BSA > 1.3 m^2) of the same molecule?
**A.** 20320.32 µg/mL

**Q.** And the “U-PAGN, maximum” value ([3]; BSA > 1.3 m^2)?
**A.** 30304.04 µg/mL

**Q.** And the “U-PAGN, mean” value ([3]; BSA > 1.3 m^2)?
**A.** 9058.68 µg/mL

**Q.** And the “U-PAGN, minimum” value ([3]; BSA > 1.3 m^2)?
**A.** 1157.49 µg/mL

**Q.** What about the “U-PAGN, 5th percentile” value ([3]; BSA ≦ 1.3 m^2) of the same molecule?
**A.** 1061.84 µg/mL

**Q.** And the “U-PAGN, 10th percentile” value ([3]; BSA ≦ 1.3 m^2)?
**A.** 3645.97 µg/mL

**Q.** And the “U-PAGN, 25th percentile” value ([3]; BSA ≦ 1.3 m^2)?
**A.** 8390 µg/mL and 8390.07 µg/mL

**Q.** And the “U-PAGN, 50th percentile” value ([3]; BSA ≦ 1.3 m^2)?
**A.** 17075.13 µg/mL

**Q.** And the “U-PAGN, 75th percentile” value ([3]; BSA ≦ 1.3 m^2)?
**A.** 25465.73 µg/mL

**Q.** What about the “U-PAGN, 90th percentile” value ([3]; BSA ≦ 1.3 m^2) of the same molecule?
**A.** 30830 µg/mL

**Q.** And the “U-PAGN, 95th percentile” value ([3]; BSA ≦ 1.3 m^2)?
**A.** 35516.41 µg/mL

**Q.** What about the “U-PAGN, maximum” value ([3]; BSA ≦ 1.3 m^2) of the same molecule?
**A.** 44298.26 µg/mL

**Q.** And the “U-PAGN, mean” value ([3]; BSA ≦ 1.3 m^2)?
**A.** 17547.48 µg/mL

**Q.** What about the “U-PAGN, minimum” value ([3]; BSA ≦ 1.3 m^2) of the same molecule?
**A.** 119.47 µg/mL

**Q.** And the “U-PAGN, 5th percentile” value [4, 6]?
**A.** 3379.24 µg/mL

**Q.** What about the “U-PAGN, 10th percentile” value [4, 6] of the same molecule?
**A.** 4078.79 µg/mL

**Q.** And the “U-PAGN, 25th percentile” value [4, 6]?
**A.** 5259 µg/mL and 5259.01 µg/mL

**Q.** What about the “U-PAGN, 75th percentile” value [4, 6] of the same molecule?
**A.** 11916.08 µg/mL

**Q.** And the “U-PAGN, 90th percentile” value [4, 6]?
**A.** 15993.51 µg/mL

**Q.** And the “U-PAGN, 95th percentile” value [4, 6]?
**A.** 20320.32 µg/mL

**Q.** What about the “U-PAGN, maximum” value [4, 6] of the same molecule?
**A.** 30304.04 µg/mL

**Q.** What about the “U-PAGN, mean” value [4, 6] of the same molecule?
**A.** 9058.68 µg/mL

**Q.** What about the “U-PAGN, median” value [4, 6] of the same molecule?
**A.** 7748.84 µg/mL

**Q.** And the “U-PAGN, minimum” value [4, 6]?
**A.** 1157.49 µg/mL

**Q.** And the “U-PAGN, 5th percentile” value [4, 7]?
**A.** 621.6 µg/mL

**Q.** What about the “U-PAGN, 10th percentile” value [4, 7] of the same molecule?
**A.** 3479.50 µg/mL

**Q.** And the “U-PAGN, 25th percentile” value [4, 7]?
**A.** 7412 µg/mL and 7412.48 µg/mL

**Q.** And the “U-PAGN, 75th percentile” value [4, 7]?
**A.** 23635.08 µg/mL

**Q.** What about the “U-PAGN, 90th percentile” value [4, 7] of the same molecule?
**A.** 29835.07 µg/mL

**Q.** What about the “U-PAGN, 95th percentile” value [4, 7] of the same molecule?
**A.** 33943.83 µg/mL

**Q.** What about the “U-PAGN, maximum” value [4, 7] of the same molecule?
**A.** 43372.15 µg/mL

**Q.** What about the “U-PAGN, mean” value [4, 7] of the same molecule?
**A.** 16186.11 µg/mL

**Q.** And the “U-PAGN, median” value [4, 7]?
**A.** 15869.85 µg/mL

**Q.** What about the “U-PAGN, minimum” value [4, 7] of the same molecule?
**A.** 119.5 µg/mL

**Q.** And the Mean ammonia values (ammonia; HPN-100-012 safety extension, pediatric UCD patients under six years)?
**A.** within normal limits

**Q.** And the “Ammonia control compared with NaPBA” value (ammonia; phase 2 HPN-100-005, 11 pediatric UCD patients age six years and up, PBA equimolar dosage)?
**A.** at least equivalent to NaPBA

**Q.** What about the “Ammonia control compared with NaPBA” value (ammonia; phase 2 studies overall, equivalent dosages) of the same molecule?
**A.** at least equal to NaPBA

**Q.** What about the “Ammonia control compared with NaPBA” value (ammonia; phase 3 HPN-100-006, 45 adult UCD patients, PBA equivalent dosage) of the same molecule?
**A.** non-inferior to NaPBA

**Q.** And the Mean ammonia levels (ammonia; phase 3 extended dosing HPN-100-007 and HPN-100-005 safety extension, adult and pediatric UCD subjects)?
**A.** within normal limit

**Q.** And the Safety of administration [5]?
**A.** established the safety
